Source: patent US6890727B2, “Diagnostic assay for Alzheimer's disease: assessment of Aβ abnormalities” (The General Hospital Corporation, priority 1994, dated 2005)
Where two headings read alike, the source gives them in different places.

Experiments:
[1] = Zinc-induced tinctorial amyloid formation (Congo Red, polarized light); type: physicochemical
Experimental: FIGS. 8a and 8b are photographs showing zinc-induced tinctorial amyloid formation. […] The particle diameter is 40μ. […] The experiment was repeated with EDTA (50 μM) substituted for Zn^2+ and yielded no visible material.
The particle diameter is 40μ. […] The experiment was repeated with EDTA (50 μM) substituted for Zn^2+ and yielded no visible material.

[2] = not given; remark: listed apart in the source
[3] = 65Zn2+ binding to immobilized peptide (dot-blot, Scatchard competition analysis); conditions: 1 min
[4] = Aβ incubation with column components, UV absorption before and after; type: physicochemical
Experimental: To determine the part of the column onto which Aβ was precipitating, Aβ solutions were incubated with various column components and assayed by UV absorption before and after incubation. Replicating the chromatography experimental conditions, Aβ (100 μM in equilibration buffer) was incubated for 1 h in plastic reaction vessels with or without the presence of Sephadex.

[5] = 20 μM in PBS, cited from earlier work
[6] = 65Zn2+ binding to immobilized peptide (dot-blot, Scatchard competition analysis)
Experimental: ^65Zn^2+ Binding Studies—Dissolved peptides (1.2 nMol, unless other wise stated) were dot-blotted onto polyvinylidene difluoride membrane (0.2-μm pore size; Pierce Chemical Co.), washed twice with chelating buffer (200 μl×100 mM NaCl, 20 mM Tris-HCl, 1 mM EDTA, pH 7.4), then five times with blocking buffer (200 μl×100 mM NaCl, 20 mM Tris-HCl, 1 mM MnCl2, pH 7.4), and then incubated (60 min, 20° C.) with ^65Zn (unless otherwise stated 130,000 cpm, […] ^65ZnCl2 in 200 μl of blocking buffer±competing metal ion chloride). The dot-blot was then washed with blocking buffer (5×200 μl), the dot excised, placed in a test tube, and assayed by γ-counting (11% efficiency). The equilibration volume for stoichiometry estimates was regarded as 6×200 μl. The 214 nm UV absorbance of the unbound flow-through was assayed to determine the total amount of peptide remaining bound onto the membrane. […] To alter the pH, the ^65Zn incubation was carried out in the presence of 100 mM buffer: MOPS (pH 6.5-7.0), MES (pH 5.0-6.0), acetate (pH 3.5-4.5). The dot-blot apparatus was washed with detergent and EDTA (50 mM) then rinsed and siliconized between use.
Aliquots of Aβ were incubated (60 min) with ^65Zn^2+ in the presence of varying concentrations of unlabeled Zn^2+ (0.01-50 μM total). Values shown are means±S.D., n≧3. […] (FIG. 1b) depicts specificity of the Zn^2+ binding site for various metals. Aβ was incubated (60 min) with ^65 Zn^2+ (157 nM, 138,000 cpm) and competing unlabeled metal ions (50 μM total). […] Percent binding of total counts ^65Zn^2+/min added is corrected for the amounts (in nanomoles) of peptides adhering to the membrane. […] 157 nM ^65Zn (138,000 cpm) is used in this experiment to probe immobilized peptide (1.6 nmol).

[7] = system: trypsin; experiment: Tryptic digestion of Aβ after incubation with Zn2+; type: biochemical; conditions: increasing zinc concentrations
Experimental: Tryptic Digestion of Aβ-Aβ1-40 (13.9 μg) was incubated with Zn^2+ ([…] in blocking buffer, 1 h, 37° C.) and then digested with trypsin (12 ng, 3 h, 37° C.). The reaction was stopped by adding SDS sample buffer containing phenylmethylsulfonyl fluoride (1 mM), boiling the samples (5 min), and applying the samples to Tris/Tricine gel electrophoresis and transfer. The blot was washed with EDTA, Coomassie-stained, incubated with ^65Zn^2+, individual bands were excised, assayed for ^65Zn^2+ binding, and N-terminal sequenced to confirm the identity of the digestion products. The effects of Zn^2+ (up to 100 μM in TBS) on the activity of trypsin, itself, were assayed by assay of Z-Arg-amido-4-methylcoumarin (Sigma) fluorescent cleavage product and determined to be negligible.
(FIG. 4a) depicts a blot of tryptic digests of Aβ (13.9 μg) after incubation with increasing concentrations of zinc (lane labels, in micromolar), stained by Coomassie Blue. […] The migration of the low molecular size markers (STD) are indicated (in kilodaltons) on the right. (FIG. 4b) depicts ^65Zn^2+ binding to Aβ tryptic digestion products. The blot in 4a was incubated with ^65Zn^2+, the visible bands excised, and the bound counts for each band determined.

[8] = Aβ binding to kaolin (aluminum silicate); type: physicochemical
Experimental: Aβ Binding to Kaolin (Aluminum Silicate)—Kaolin suspension was prepared in high performance liquid chromatography water (Fisher), defined, and adjusted to 50% (v/v). Aβ (40 μg) was incubated in siliconized reaction vessels with either kaolin or Sephadex G50 SF (10 μl×50% (v/v)) in Cu^2+, Zn^2+, or EDTA (100 μl in TBS, 5 min, room temperature). The suspension was then pelleted (1500×g, 3 min) and the supernatant removed and diluted 20-fold with water to bring the UV absorbance readings into the linear range. Samples were assayed at 214 nm before and after incubation with kaolin or Sephadex.
(FIG. 3a) depicts concentration (by 214 nm absorbance) of Aβ remaining in supernatant after incubation with 10 mg of G50 Sephadex. (FIG. 3b) depicts concentration (by 214 nm absorbance) of Aβ remaining in supernatant after incubation with 10 mg of kaolin, expressed as percent of the starting absorbance.

[9] = centrifugation studies; cited from earlier work
[10] = neutral pH; cited from earlier work

## Aβ1-40: synthetic peptide representing secreted human Aβ1-40, 4.3 kDa, main component of Alzheimer cerebral amyloid
>0.65 aggregates, EDTA 50 μM
  peptide recovered when retained aggregates are washed with EDTA: 22%
EDTA, peptide 1.6 μM
  proportion of particles >0.1μ: 47%
  proportion of particles >0.22μ: 40%
  proportion of particles >0.65μ: 32%
Zn^2+ 25 μM vs EDTA
  increase of proportion of >0.1μ particles following incubation with Zn^2+: 50%
  increase of proportion of >0.22μ particles following incubation with Zn^2+: 55%
Zn^2+ 25 μM, peptide 1.6 μM
  proportion of particles >0.65μ: 82%
Compared with >0.65 aggregates
  additional ≦0.22μ peptide resolubilized by EDTA treatment: 7%
[1]; Congo Red
  Zn^2+ concentration inducing amyloid by tinctorial criteria: 3 µM
[1]; peptide 25 μM, Zn^2+ 25 μM, 30 minutes, 37° C.
  particle diameter of zinc-induced precipitate: 40 μ
[2]; EDTA
  >0.2μ particle assembly following incubation with EDTA: 10-20%
[2]; EDTA buffer, peptide 1.6 μM
  near-instantaneous aggregation into >0.2μ particles: 20%
[2]; EDTA, higher peptide concentrations
  peptide aggregated into >0.2μ particles: ≈ 15%
[2]; EDTA, peptide 0.8 μM
  peptide aggregated into >0.2μ particles: no detectable aggregation
[2]; Zn^2+ 25 μM, 30 minutes, various peptide concentrations
  peptide aggregated into >0.2μ particles: up to 80%
[2]; Zn^2+ 25 μM, peptide 0.8 μM
  peptide aggregated into >0.2μ particles: > 70%
[2]; Zn^2+ 25 μM, peptide 1.6 μM
  particle assembly rate of second phase: 3.2 nM/min
  time to steady state of the second phase: ≤ 2 min
[2]; Zn^2+ 25 μM, peptide 1.6 μM, pH 7.4
  half-maximal assembly rate of initial phase: ≈ 0.4 μM/min
[2]; at second-phase rate
  time until available peptide is exhausted: within five hours
[2]; curve of FIG. 6A extrapolated to 0.6 nM peptide, Zn^2+ 25 μM
  peptide that would aggregate into >0.2μ particles, extrapolated: 25%
[3]
  ^65Zn^2+ binding at 1 min: 60 % Bmax
[4]; Aβ 100 μM, 1 h
  binding to Sephadex: < 1%
  loss to siliconized plastic: < 1%
[4]; without zinc
  adsorption in borosilicate glass test tubes: 20%
[4]; zinc 25 μM
  adsorption in borosilicate glass test tubes: 35%
[5]; pH 7.4
  time stable in solution: 10 days
[5]; seeded with Aβ1-42 (2 μM)
  time to half-maximal aggregation: 4 to 5 days
[6]
  time at which ^65Zn^2+ binding plateaued: 1 h
[6]; pH 6.0
  ^65Zn^2+ binding at lower pH: 30 % of Bmax
[7]
  effect of zinc on rate of tryptic digestion of the peptide: is inhibited by the presence of zinc
[8]; 10 mM EDTA
  reversibility of binding to kaolin: not reversible
[8]; Aβ 0.4 mg/ml, kaolin 5% v/v, 5 min, room temperature
  precipitation of the peptide by kaolin: up to 87%

## ^125I-human Aβ1-40: human Aβ1-40 iodinated on the tyrosine residue at position 10, tracer
[9]
  Zn^2+ concentration required to precipitate: 1 mM

## insulin: insulin, literature comparison for zinc binding
[10]
  stoichiometric ratio Zn^2+:insulin in excess of which the peptide precipitates: > 0.33
